Legend:
[1] = Compound cytotoxicity, XTT-based colorimetric assay; format: cell-based; details: human, uninfected MT2 cells, day 4, XTT
Outline: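 Run under the antiviral-assay protocol but without virus. Viability was read on day 4 and CC50 values were derived from the readout.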

[2] = test system: recombinant NL4-3 virus (nef section replaced with Renilla luciferase gene) in MT-2 cells; experiment: HIV cell culture assay (antiviral activity, luciferase readout); format: cell-based; details: Renilla, NL43, MT-2 cells infected for 4-5 days with recombinant NL4-3 Renilla luciferase virus
Outline: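 Serial compound dilutions tested in MT-2 cells infected for 4-5 days with 293T-derived NL4-3 virus carrying Renilla luciferase in place of part of nef. Antiviral activity quantified as luciferase activity, read with a live-cell substrate.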

| SMILES | CC50 at 4 days [1] | EC50 [2] |
| --- | --- | --- |
| CN(C(=O)[C@H](Cc1cc(F)cc(F)c1)NC(=O)NS(=O)(=O)N1CCC(c2ccccc2)CC1)c1ccc2scnc2c1 [CA-156] | 99.2 µM | 8.32 µM |
| CN(C(=O)[C@H](Cc1cc(F)cc(F)c1)NC(=O)NS(=O)(=O)N1CCc2ccccc2C1)c1ccc2scnc2c1 [CA-157] | 99.7 µM | 0.88 µM |
| CN(C(=O)[C@H](Cc1cc(F)cc(F)c1)NC(=O)NS(=O)(=O)NCCc1ccccc1)c1ccc2scnc2c1 [CA-158] | > 100 µM | 0.34 µM |
| Cc1ccc(N(C)C(=O)[C@H](Cc2cc(F)cc(F)c2)NC(=O)NS(=O)(=O)N2CCc3cccnc32)cn1 [GW-2] | > 100 µM | 0.07 µM |
| CCc1ccc(N(C)C(=O)[C@H](Cc2cc(F)cc(F)c2)NC(=O)NS(=O)(=O)N2CCc3cccnc32)cn1 [GW-3] | > 100 µM | 0.02 µM |
| Cc1ccc(N(C)C(=O)[C@H](Cc2cc(F)cc(F)c2)NC(=O)NS(=O)(=O)N2CCc3cccnc32)nc1 [GW-4] | > 100 µM | 0.22 µM |
| CN(C(=O)[C@H](Cc1cc(F)cc(F)c1)NC(=O)NS(=O)(=O)N1CCc2cccnc21)c1ccc2sc(=O)[nH]c2c1 [GW-5] | > 100 µM | 0.32 µM |
| CN(C(=O)[C@H](Cc1cc(F)cc(F)c1)NC(=O)NS(=O)(=O)N1CCc2cccnc21)c1ccc2c(c1)ncn2C [GW-6] | > 25 µM | 0.63 µM |
| CN(C(=O)[C@H](Cc1cc(F)cc(F)c1)NC(=O)NS(=O)(=O)N1CCc2cccnc21)c1ccc(OC(F)(F)F)cc1 [GW-7] | 16.8 µM | 0.03 µM |
| CN(C(=O)[C@H](Cc1cc(F)cc(F)c1)NC(=O)NS(=O)(=O)N1CCc2cccnc21)c1ccc2c(cnn2C)c1 [GW-8] | > 25 µM | 0.1 µM |
| CN(C(=O)[C@H](Cc1cc(F)cc(F)c1)NC(=O)NS(=O)(=O)N1CCc2cccnc21)c1ccc(C(F)(F)F)nc1 [GW-9] | 35.1 µM | 0.18 µM |
| CN(C(=O)[C@H](Cc1cc(F)cc(F)c1)NC(=O)NS(=O)(=O)N1CCc2cccnc21)c1ccc(C2CC2)cc1 [GW-10] | 91 µM | 0.03 µM |
| COc1ccc(N(C)C(=O)[C@H](Cc2cc(F)cc(F)c2)NC(=O)NS(=O)(=O)N2CCc3cccnc32)cn1 [GW-11] | > 100 µM | 0.09 µM |
| CN(C(=O)[C@H](Cc1cc(F)cc(F)c1)NC(=O)NS(=O)(=O)N1CCc2cccnc21)c1ccc(C(F)F)nc1 [GW-12] | > 100 µM | 0.12 µM |
| CN(C(=O)[C@H](Cc1cc(F)cc(F)c1)NC(=O)NS(=O)(=O)N1CCc2cccnc21)c1ccc(OC(F)F)nc1 [GW-13] | > 100 µM | 0.06 µM |
| Cc1ncc(N(C)C(=O)[C@H](Cc2cc(F)cc(F)c2)NC(=O)NS(=O)(=O)N2CCc3cccnc32)cn1 [GW-14] | > 100 µM | 1.61 µM |
| Cc1ncc(N(C)C(=O)[C@H](Cc2cc(F)cc(F)c2)NC(=O)NS(=O)(=O)N2CCc3cccnc32)cc1Cl [GW-15] | 5.1 µM | 0.97 µM |
| CN(C(=O)[C@H](Cc1cc(F)cc(F)c1)NC(=O)NS(=O)(=O)N1CCc2cccnc21)c1cnc2scnc2c1 [GW-16] | > 100 µM | 0.28 µM |
| CCc1ccc(N(C)C(=O)[C@H](Cc2cc(F)cc(F)c2)NC(=O)NS(=O)(=O)N(C)C)cn1 [GW-17] | > 100 µM | 0.1 µM |
| CN(C(=O)[C@H](Cc1cc(F)cc(F)c1)NC(=O)NS(=O)(=O)N1CCc2cccnc21)c1cccnc1 [GW-18] | > 100 µM | 0.18 µM |

| SMILES | CC50 at 4 days [1] | EC50 [2] |
| --- | --- | --- |
| CN(C(=O)[C@H](Cc1cc(F)cc(F)c1)NC(=O)NS(=O)(=O)N1CCc2cccnc21)c1ccc2sc(=O)n(C)c2c1 [GW-19] | > 100 µM | 0.06 µM |
| Cc1cc(N(C)C(=O)[C@H](Cc2cc(F)cc(F)c2)NC(=O)NS(=O)(=O)N2CCc3cccnc32)cnc1C [GW-20] | > 100 µM | 0.23 µM |
| Cc1nc2c(F)c(N(C)C(=O)[C@H](Cc3cc(F)cc(F)c3)NC(=O)NS(=O)(=O)N3CCc4cccnc43)ccc2s1 [GW-21] | > 100 µM | 0.08 µM |
| CN(C(=O)[C@H](Cc1cc(F)cc(F)c1)NC(=O)NS(=O)(=O)N1CCc2cccnc21)c1ccc2scnc2c1F [GW-22] | > 100 µM | 0.01 µM |
| [2H]c1nc2cc(N(C)C(=O)[C@H](Cc3cc(F)cc(F)c3)NC(=O)NS(=O)(=O)N3CCc4cccnc43)ccc2s1 [GW-23] | > 10 µM | 0.02 µM |
| COc1ccc(N(C)C(=O)[C@H](Cc2ccccc2)NC(=O)NS(=O)(=O)N2CCc3ccccc32)cc1 [JB-1] | > 100 µM | 0.11 µM |
| COc1ccc(N(C)C(=O)[C@H](Cc2ccccc2)NC(=O)NS(=O)(=O)N2CCCc3ccccc32)cc1 [JB-2] | > 33.3 µM | 0.11 µM |
| COc1ccc(N(C)C(=O)[C@H](Cc2ccccc2)NC(=O)NS(=O)(=O)N(C)c2ccccc2)cc1 [JB-3] | > 100 µM | 0.13 µM |
| COc1ccc(N(C)C(=O)[C@H](Cc2ccccc2)NC(=O)NS(=O)(=O)Nc2ccccc2)cc1 [JB-4] | > 100 µM | 0.14 µM |
| COc1ccc(N(C)C(=O)[C@H](Cc2ccccc2)NC(=O)NS(=O)(=O)Nc2ccccc2Cl)cc1 [JB-5] | > 100 µM | 0.1 µM |
| COc1ccc(N(C)C(=O)[C@H](Cc2ccccc2)NC(=O)NS(=O)(=O)N(C)c2ccccc2Cl)cc1 [JB-6] | > 100 µM | 0.66 µM |
| COc1ccc(N(C)C(=O)[C@H](Cc2ccccc2)NC(=O)NS(=O)(=O)N2CCc3ccccc3C2)cc1 [JB-7] | > 100 µM | 0.2 µM |
| COc1ccc(N(C)C(=O)[C@H](Cc2ccccc2)NC(=O)NS(=O)(=O)N2CC(c3ccccc3)C2)cc1 [JB-8] | > 100 µM | 2.69 µM |
| COc1ccc(N(C)C(=O)[C@H](Cc2ccccc2)NC(=O)NS(=O)(=O)n2c3ccccc3c3ccccc32)cc1 [JB-9] | 74.2 µM | 0.44 µM |
| CN(C(=O)[C@H](Cc1ccccc1)NC(=O)NS(=O)(=O)Nc1ccccc1Cl)c1ccc2ncccc2c1 [JB-10] | > 100 µM | 0.05 µM |
| CN(C(=O)[C@H](Cc1ccccc1)NC(=O)NS(=O)(=O)N(C)c1ccccc1Cl)c1ccc2ncccc2c1 [JB-11] | > 100 µM | 0.04 µM |
| COc1ccccc1NS(=O)(=O)NC(=O)N[C@@H](Cc1ccccc1)C(=O)N(C)c1ccc2ncccc2c1 [JB-12] | 57.7 µM | 0.17 µM |
| COc1ccccc1N(C)S(=O)(=O)NC(=O)N[C@@H](Cc1ccccc1)C(=O)N(C)c1ccc2ncccc2c1 [JB-13] | > 33.3 µM | 0.26 µM |
| COc1ccc(N(C)C(=O)[C@H](Cc2ccccc2)NC(=O)NS(=O)(=O)N2CCCCC2)cc1 [JB-14] | > 100 µM | 0.69 µM |
| COc1ccc(N(C)C(=O)[C@H](Cc2ccccc2)NC(=O)NS(=O)(=O)N(C)C)cc1 [JB-15] | > 100 µM | 1.92 µM |

| SMILES | CC50 at 4 days [1] | EC50 [2] |
| --- | --- | --- |
| COc1ccc(N(C)C(=O)[C@H](Cc2ccccc2)NC(=O)NS(=O)(=O)Nc2ccccc2OC)cc1 [JB-16] | > 100 µM | 0.17 µM |
| COc1ccc(N(C)C(=O)[C@H](Cc2ccccc2)NC(=O)NS(=O)(=O)Nc2ccccc2C)cc1 [JB-17] | > 100 µM | 0.08 µM |
| COc1ccc(N(C)C(=O)[C@H](Cc2ccccc2)NC(=O)NS(=O)(=O)N(C)c2ccccc2C)cc1 [JB-18] | > 100 µM | 0.56 µM |
| COc1ccc(N(C)C(=O)[C@H](Cc2ccccc2)NC(=O)NS(=O)(=O)Nc2cccc(Cl)c2)cc1 [JB-19] | > 100 µM | 0.05 µM |
| COc1ccc(N(C)C(=O)[C@H](Cc2ccccc2)NC(=O)NS(=O)(=O)Nc2cccc(OC)c2)cc1 [JB-20] | > 100 µM | 0.1 µM |
| COc1ccc(N(C)C(=O)[C@H](Cc2ccccc2)NC(=O)NS(=O)(=O)Nc2cccnc2)cc1 [JB-21] | > 100 µM | 1.78 µM |
| COc1ccc(N(C)C(=O)[C@H](Cc2ccccc2)NC(=O)NS(=O)(=O)Nc2ccc(Cl)cc2)cc1 [JB-22] | > 100 µM | 0.07 µM |
| COc1ccc(N(C)C(=O)[C@H](Cc2ccccc2)NC(=O)NS(=O)(=O)N(C)c2ccccc2OC)cc1 [JB-23] | > 100 µM | 0.87 µM |
| COc1ccc(N(C)C(=O)[C@H](Cc2ccccc2)NC(=O)NS(=O)(=O)Nc2cccc(C)c2)cc1 [JB-24] | > 100 µM | 0.1 µM |
| COc1ccc(N(C)C(=O)[C@H](Cc2ccccc2)NC(=O)NS(=O)(=O)N(C)c2cccc(C)c2)cc1 [JB-25] | > 100 µM | 0.08 µM |
| COc1ccc(N(C)C(=O)[C@H](Cc2ccccc2)NC(=O)NS(=O)(=O)Nc2ccc(C)cc2)cc1 [JB-26] | > 100 µM | 0.04 µM |
| COc1ccc(NS(=O)(=O)NC(=O)N[C@@H](Cc2ccccc2)C(=O)N(C)c2ccc(OC)cc2)cc1 [JB-27] | > 100 µM | 0.15 µM |
| COc1ccc(N(C)C(=O)[C@H](Cc2ccccc2)NC(=O)NS(=O)(=O)N(C)c2ccc(OC)cc2)cc1 [JB-28] | > 100 µM | 0.21 µM |
| COc1ccc(N(C)C(=O)[C@H](Cc2ccccc2)NC(=O)NS(=O)(=O)Nc2ncccn2)cc1 [JB-29] | > 100 µM | 1.6 µM |
| COc1ccc(N(C)C(=O)[C@H](Cc2ccccc2)NC(=O)NS(=O)(=O)N(C)CC(=O)N(C)C)cc1 [JB-30] | > 100 µM | 1.95 µM |
| COc1ccc(N(C)C(=O)[C@H](Cc2ccccc2)NC(=O)NS(=O)(=O)N2CCc3cccnc32)cc1 [JB-31] | > 100 µM | 0.14 µM |
| COc1ccc(N(C)C(=O)[C@H](Cc2ccccc2)NC(=O)NS(=O)(=O)Nc2nccc3ccccc23)cc1 [JB-32] | > 100 µM | 1.45 µM |
| COc1ccc(N(C)C(=O)[C@H](Cc2ccccc2)NC(=O)NS(=O)(=O)NCCc2ccccc2)cc1 [JB-33] | > 100 µM | 0.68 µM |
